Like-named read-outs stand apart in the source and are kept apart here.
Columns and labels:
Assay type in all cases: cell-based, Hepatitis C virus
[1] = tested on: 1b, BB7-C316Y replicon; assay: Replicon variant 3-day assay; conditions: for Fold Resistance: C316Y replicon vs 1b, BB7 (WT); for EC50: read-out: EC50 (μM or pg/ml) ± SD
Experimental: (§1) pBB7-replicon variant DNAs were linearized with Sca I, and in vitro transcription was performed using Ambion's […]® T7 High Yield Transcription kit (Austin, Tex.). Purified RNA transcripts were electroporated into Huh-7 cells in quadruplicates using a Biorad GENE PULSER® Electroporation System (Setting: 270V, 950 μF) (Hercules, Calif.). Stably transfected replicon variant cell lines were initially selected with 0.25 mg/ml G418 and stepped up to 1 mg/ml before further testing. One cell plate was stained with Crystal Violet to visualize the number of colonies and determine the colony formation efficiency. Individual cell clones from each plate were pooled and expanded for drug susceptibility testing.
(§2) The contribution of individual amino acid changes on drug resistance was assessed in replicon variants containing single amino acid mutations in NS5B in the background of the genotype 1b, BB7 adaptive replicon (Blight et al. (2000) Science 290:1972-74).
(§3) Drug susceptibility of the replicon-containing cells to various compounds was evaluated as described previously (Howe et al. (2004) Antimicrobial Agents Chem. 48:4813-21). Briefly, cells were treated with increasing concentrations of compounds in medium containing 2% FCS and no G418 for three days at 37° C. and 5% CO2. After incubation, total RNA from the replicon-containing cells was isolated. The levels of HCV, glyceraldehyde 3-phosphate dehydrogenase (GAPDH) and ribosomal (rRNA) RNAs were quantified using TAQMAN® (PE Applied Biosystems, Foster City, Calif.) reverse transcriptase PCR reactions. The amounts of HCV, 18S ribosomal, and GAPDH RNAs in each sample were estimated by comparing the number of cycles during the exponential phase of the PCR amplification with those in the corresponding standard curves. HCV RNA standards used for the construction of the standard curve were prepared by extracting the total RNA from the Clone A cells. The RNA sample was sent to National Genetics Institute to quantify HCV RNA. Total RNA extracted from Clone A cells was quantified by O.D.260 measurement and used for construction of the standard curves of rRNA and GAPDH. The concentrations of the compounds that inhibit 50% of the HCV RNA level (EC50) were determined using the MDL® LIFE SCIENCE WORKBENCH® (LSW) Data Analysis software (MDL Information Systems, San Leandro, Calif.) in Microsoft EXCEL®. The amounts of HCV or GAPDH RNAs in the samples were expressed as HCV RNA (copies) or GAPDH (ng), respectively, per μg of total RNA using rRNA as a marker for total RNA measurement.

[2] = tested on: 1b, BB7 replicon (WT); assay: Replicon 3-day assay, wild type; conditions: read-out: EC50 (μM or pg/ml) ± SD
Experimental: as §1, §2, §3

[3] = tested on: 1b, BB7 replicon variants with single NS5B mutations; assay: Replicon variant assay, several variants taken together; conditions: replicon variants with HCV-796-associated mutations
Experimental: as §1, §2, §3

CCC[C@]1(CC(=O)O)OCCc2c1[nH]c1c(C)ccc(C#N)c21 [HCV-371, [(1R)-5-cyano-8-methyl-1-propyl-1,3,4,9-tetrahydropyano[3,4-b]indol-1-yl]acetic acid]
Fold Resistance [1]: 0.9 fold
EC50 ([1]; C316Y replicon): 10.8 ± 0.8 µM
EC50 ([2]; 1b, BB7 (WT) replicon): 12.2 ± 1.8 µM

NC(=O)c1ncn([C@@H]2O[C@H](CO)[C@@H](O)[C@H]2O)n1 [RBV, 1-β-D-ribofuranosyl-1H-1,2,4-triazole-3-carboxamide, reference compound]
susceptibility of HCV-796-resistant replicon variants to other antiviral agents (in words) ([3]; listed as Ribavirin): inhibits
susceptibility of HCV-796-resistant replicon variants to other antiviral agents (in words) ([3]; listed as ribavirin): remained susceptible
inhibition of the C316Y replicon compared with wild type (in words) ([1]; C316Y replicon variant vs wild type replicon): as efficiently as in the wild type replicon
Fold Resistance [1]: 1.8 fold
EC50 ([1]; Hepatitis C virus): 201 ± 36.7 µM
EC50 ([2]; Hepatitis C virus): 133 ± 40.5 µM

— patent publication US20080182895A1 (priority 2006, published 2008)
